Measured values as given in DBAASP.
Values after ≈ are worked out from the molar mass of the structure shown. Values joined by “and” are separate entries in the source; they are usually repeats but may differ in a detail not shown here. Identical values can stand only once. Each block holds one molecule with its values, some of them ahead of it.

How the values were obtained:
Assay in all cases: ≥ marks a high value that may be exact or a test limit, other limits are often not marked, values filed in µg/mL are converted to µM
[1] = test system: Pseudomonas aeruginosa
[2] = test system: Staphylococcus aureus MR
[3] = test system: Escherichia coli
[4] = test system: Staphylococcus aureus
[5] = test system: Escherichia coli ATCC 2592
[6] = test system: Pseudomonas aeruginosa ATCC 9027
[7] = test system: Staphylococcus aureus ATCC 6538
[8] = test system: Candida albicans ATCC 36232
[9] = test system: Pseudomonas aeruginosa ATCC 10145
[10] = test system: Pseudomonas aeruginosa H1001
[11] = test system: Micrococcus luteus ATCC 9341
[12] = test system: Salmonella enterica serovar Typhimurium
[13] = test system: Staphylococcus epidermidis
[14] = test system: Staphylococcus aureus ATCC 25923
[15] = test system: Enterococcus faecalis ATCC 29212
[16] = test system: Escherichia coli UB1005
[17] = test system: Pseudomonas aeruginosa H103
[18] = test system: Candida albicans
[19] = test system: Pseudomonas syringae pv. syringae EPS 94
[20] = test system: Erwinia amylovora PMV 6076
[21] = test system: Saccharomyces cerevisiae
[22] = test system: Micrococcus luteus
[23] = test system: Pseudomonas aeruginosa ATCC 15692
[24] = test system: Escherichia coli ATCC 25922
[25] = test system: Pseudomonas aeruginosa PAO1
[26] = test system: Acinetobacter baumannii

Structure (SMILES): CC(C)C[C@H](NC(=O)[C@H](CS)NC(=O)[C@H](CCCCN)NC(=O)[C@H](C)NC(=O)[C@H](C)NC(=O)[C@H](CS)NC(=O)[C@H](C)NC(=O)[C@H](C)NC(=O)[C@@H](N)CCCCN)C(=O)N[C@@H](Cc1c[nH]c2ccccc12)C(=O)N[C@@H](CCCN=C(N)N)C(N)=O [KAACAAKCLWR]
MIC [5]: ≥ 164 µM
MIC [6]: 81.9 µM and 164 µM
MIC [7]: 41 µM and 81.9 µM
MIC [8]: ≥ 164 µM

Structure (SMILES): CC(C)[C@H](NC(=O)[C@H](CCCCN)NC(=O)[C@H](Cc1ccccc1)NC(=O)[C@@H](NC(=O)[C@@H](NC(=O)[C@H](CCCCN)NC(=O)[C@@H](N)CCCCN)C(C)C)C(C)C)C(=O)N[C@@H](CCCCN)C(=O)N[C@@H](Cc1ccccc1)C(=O)N[C@@H](CCCCN)C(=O)N[C@@H](CCCCN)C(=O)N[C@@H](CCCCN)C(N)=O [KKVVFKVKFKKK]
MIC [7]: 2.08 µM (≈ 3.13 µg/mL)
MIC [8]: 2.08 µM and 1.47 µM and 4.15 µM
MIC [11]: 2.08 µM (≈ 3.13 µg/mL)

Structure (SMILES): CC[C@H](C)[C@H](NC(=O)[C@H](C)NC(=O)[C@@H](NC(=O)[C@H](CCCCN)NC(=O)[C@H](CCCCN)NC(=O)[C@H](Cc1cnc[nH]1)NC(=O)[C@@H](NC(=O)[C@H](CCCN=C(N)N)NC(=O)[C@H](CS)NC(=O)[C@@H](N)CC(C)C)C(C)C)[C@@H](C)CC)C(=O)O [LCRVHKKIAI]
MIC [10]: ≥ 169 µM

Structure (SMILES): CC[C@H](C)[C@H](NC(=O)[C@H](C)NC(=O)[C@@H](N)CC(N)=O)C(=O)N[C@@H](CCCCN)C(=O)N[C@@H](CC(C)C)C(=O)N[C@@H](CC(C)C)C(=O)N[C@@H](CS)C(=O)N[C@@H](CCCN=C(N)N)C(=O)N[C@H](C(=O)N[C@@H](Cc1cnc[nH]1)C(=O)O)C(C)C [NAIKLLCRVH]
MIC [10]: ≥ 85.7 µM

Structure (SMILES): CC(C)[C@H](NC(=O)[C@H](CCCN=C(N)N)NC(=O)[C@H](Cc1c[nH]c2ccccc12)NC(=O)[C@H](Cc1c[nH]c2ccccc12)NC(=O)[C@H](Cc1c[nH]c2ccccc12)NC(=O)[C@H](CCCN=C(N)N)NC(=O)[C@H](Cc1c[nH]c2ccccc12)NC(=O)[C@@H](N)CCCN=C(N)N)C(=O)N[C@@H](Cc1ccc(O)cc1)C(=O)O [RWRWWWRVY]
MIC [12]: 3.3 µM (≈ 4.93 µg/mL)
MIC [13]: 1.6 µM (≈ 2.39 µg/mL)
MIC [14]: 3.3 µM (≈ 4.93 µg/mL)
MIC [15]: 3.3 µM (≈ 4.93 µg/mL)
MIC [16]: 1.6 µM (≈ 2.39 µg/mL)
MIC [17]: 13.2 µM (≈ 19.7 µg/mL)
MIC [18]: 13.2 µM (≈ 19.7 µg/mL)

Structure (SMILES): CC[C@H](C)[C@H](NC(=O)[C@H](CCCCN)NC(=O)[C@H](CCCCN)NC(=O)[C@H](Cc1ccccc1)NC(=O)[C@H](CC(C)C)NC(=O)[C@H](CCCCN)NC(=O)[C@H](CCCCN)NC(=O)[C@@H](N)CO)C(=O)N[C@@H](CC(C)C)C(=O)N[C@@H](CCCCN)C(=O)N[C@@H](Cc1ccc(O)cc1)C(=O)N[C@@H](CC(C)C)C(=O)N[C@@H](C)C(=O)NCC(=O)N1CCC[C@H]1C(=O)N[C@@H](C)C(=O)N[C@@H](CCCCN)C(=O)N[C@@H](Cc1ccccc1)C(=O)N[C@@H](CC(C)C)C(=O)N[C@@H](Cc1cnc[nH]1)C(=O)N[C@@H](CO)C(=O)N[C@@H](C)C(=O)N[C@@H](CCCCN)C(=O)O [SKKLFKKILKYLAGPAKFLHSAK]
MIC [19]: 3.54 µM (≈ 9.25 µg/mL)
MIC [20]: 3.54 µM (≈ 9.25 µg/mL)

Structure (SMILES): CC[C@H](C)[C@H](NC(=O)[C@H](CC(C)C)NC(=O)[C@H](CCCCN)NC(=O)[C@H](CO)NC(=O)[C@H](C)NC(=O)CNC(=O)[C@H](CCCCN)NC(=O)[C@H](CC(C)C)NC(=O)[C@H](C)NC(=O)[C@H](CCSC)NC(=O)[C@H](CCCCN)NC(=O)[C@H](C)NC(=O)[C@H](Cc1ccccc1)NC(=O)[C@@H](NC(=O)CNC(=O)[C@H](Cc1ccccc1)NC(=O)[C@H](CC(C)C)NC(=O)[C@@H](N)CO)[C@@H](C)O)C(=O)N1CCC[C@H]1C(=O)N[C@@H](Cc1cnc[nH]1)C(=O)N[C@@H](CC(C)C)C(=O)N[C@@H](CC(C)C)C(=O)N1CCC[C@H]1C(=O)N[C@@H](CO)C(=O)N[C@@H](CCCN=C(N)N)C(=O)N[C@@H](CCC(N)=O)C(=O)N[C@@H](CCC(N)=O)C(=O)O [SLFGTFAKMALKGASKLIPHLLPSRQQ]
MIC [21]: 16 µM
MIC [22]: 0.5 µM
MIC [14]: 1 µM
MIC [23]: 5.66 µM
MIC [24]: 2.83 µM

Structure (SMILES): CC[C@H](C)[C@H](NC(=O)[C@H](CCCN=C(N)N)NC(=O)[C@H](CCCN=C(N)N)NC(=O)[C@@H]1CCCN1C(=O)[C@@H]1CCCN1C(=O)[C@H](CCCN=C(N)N)NC(=O)[C@@H]1CCCN1C(=O)[C@H](CCCN=C(N)N)NC(=O)[C@@H]1CCCN1C(=O)[C@H](CC(C)C)NC(=O)[C@H](Cc1ccc(O)cc1)NC(=O)[C@@H]1CCCN1C(=O)[C@@H]1CCCN1C(=O)[C@H](CCCCN)NC(=O)[C@@H]1CCCN1C(=O)[C@@H](N)C(C)C)C(=O)N[C@@H](Cc1ccc(O)cc1)C(=O)N[C@@H](CC(N)=O)C(=O)N[C@@H](CCCN=C(N)N)C(=O)NCC(=O)O [VPKPPYLPRPRPPRRIYNRG]
MIC [10]: 0.123 µM (≈ 0.3 µg/mL)

More lines, now with the values ahead:

MIC [1]: 13.7 µM (≈ 15 µg/mL)
MIC [2]: ≥ 43.8 µM
MIC [3]: 3.65 µM (≈ 4 µg/mL)
MIC [4]: 4.56 µM (≈ 5 µg/mL)
Structure (SMILES): CC[C@H](C)[C@H](NC(=O)[C@H](C)NC(=O)[C@H](CC(C)C)NC(=O)[C@H](CCCN=C(N)N)NC(=O)[C@H](CC(C)C)NC(=O)[C@H](C)N)C(=O)N[C@@H](CCCN=C(N)N)C(=O)N[C@@H](CCCCN)C(=O)N[C@@H](CCCN=C(N)N)C(N)=O [ALRLAIRKR]

MIC [1]: 3.55 µM (≈ 4 µg/mL)
MIC [2]: 22.2 µM (≈ 25 µg/mL)
MIC [3]: 4.44 µM (≈ 5 µg/mL)
MIC [4]: 2.66 µM (≈ 3 µg/mL)
Structure (SMILES): CC[C@H](C)[C@H](NC(=O)[C@H](C)NC(=O)[C@H](CC(C)C)NC(=O)[C@H](CC(C)C)NC(=O)[C@H](Cc1c[nH]c2ccccc12)NC(=O)[C@H](C)N)C(=O)N[C@@H](CCCN=C(N)N)C(=O)N[C@@H](CCCCN)C(=O)N[C@@H](CCCN=C(N)N)C(N)=O [AWLLAIRKR]

MIC [9]: ≥ 142 µM
Structure (SMILES): C[C@H](NC(=O)[C@H](C)NC(=O)[C@H](CCCCN)NC(=O)[C@H](CCCCN)NC(=O)[C@H](C)NC(=O)[C@H](Cc1ccccc1)NC(=O)[C@H](CCCCN)NC(=O)[C@H](CCCCN)NC(=O)[C@H](C)NC(=O)[C@H](C)NC(=O)[C@H](CCCCN)NC(=O)[C@H](CCCCN)NC(=O)[C@H](C)NC(=O)[C@H](Cc1ccccc1)NC(=O)[C@@H](N)CCCCN)C(=O)N[C@@H](CCCCN)C(=O)O [KFAKKAAKKFAKKAAK]

MIC [10]: ≥ 178 µM
Structure (SMILES): NCCCC[C@H](NC(=O)[C@H](CCCN=C(N)N)NC(=O)[C@H](Cc1c[nH]c2ccccc12)NC(=O)[C@H](CCCCN)NC(=O)[C@H](Cc1c[nH]c2ccccc12)NC(=O)[C@H](Cc1c[nH]c2ccccc12)NC(=O)[C@H](Cc1cnc[nH]1)NC(=O)[C@H](Cc1ccccc1)NC(=O)[C@@H](N)CCCCN)C(N)=O [KFHWWKWRK]

MIC [10]: 1.2 µM (≈ 2 µg/mL)
Structure (SMILES): CC[C@H](C)[C@H](NC(=O)[C@H](CCCCN)NC(=O)[C@H](Cc1c[nH]c2ccccc12)NC(=O)[C@H](CCCCN)NC(=O)[C@@H](N)CCCCN)C(=O)N[C@H](C(=O)N[C@H](C(=O)N[C@H](C(=O)N[C@@H](CCCN=C(N)N)C(=O)N[C@@H](Cc1c[nH]c2ccccc12)C(=O)N[C@@H](CCCN=C(N)N)C(=O)N[C@@H](CCCN=C(N)N)C(N)=O)[C@@H](C)CC)C(C)C)C(C)C [KKWKIVVIRWRR]

MIC [1]: 21.2 µM (≈ 32 µg/mL)
MIC [12]: 10.6 µM (≈ 16 µg/mL)
MIC [14]: 10.6 µM (≈ 16 µg/mL)
MIC [3]: > 84.7 µM
MIC [4]: 15 µM (≈ 22.6 µg/mL)
MIC [25]: 21.2 µM (≈ 32 µg/mL)
MIC [26]: 30 µM (≈ 45.3 µg/mL)
MIC [24]: 10.6 µM (≈ 16 µg/mL)
Structure (SMILES): CC[C@H](C)[C@H](NC(=O)[C@H](CCCN=C(N)N)NC(=O)[C@H](CC(C)C)NC(=O)[C@H](CCC(N)=O)NC(=O)[C@@H](N)C(C)C)C(=O)N[C@@H](CCCN=C(N)N)C(=O)N[C@H](C(=O)N[C@@H](CS)C(=O)N[C@H](C(=O)N[C@H](C(=O)N[C@@H](CCCN=C(N)N)C(=O)N[C@@H](CCCN=C(N)N)C(=O)O)[C@@H](C)CC)C(C)C)C(C)C [VQLRIRVCVIRR]
